Assay results as given in ChEMBL document CHEMBL3751753, “Synthesis and biological evaluation of 4-[(benzimidazol-1-yl) methyl]biphenyl-2-amides as dual angiotensin II and endothelin A receptor antagonists” (Medchemcomm, 2015).
Activity calls are given as the source filed them. The rule behind the calls is not given here.

Tests used:
[1] = target: T1, Endothelin-1 receptor (Homo sapiens, UniProt P25101); experiment: Displacement of 125I-labelled endothelin-1 from human ETA receptor expressed in CHOK1 cell membranes; parameters: species or system CHO-K1
T1 sequence (P25101 whole entry): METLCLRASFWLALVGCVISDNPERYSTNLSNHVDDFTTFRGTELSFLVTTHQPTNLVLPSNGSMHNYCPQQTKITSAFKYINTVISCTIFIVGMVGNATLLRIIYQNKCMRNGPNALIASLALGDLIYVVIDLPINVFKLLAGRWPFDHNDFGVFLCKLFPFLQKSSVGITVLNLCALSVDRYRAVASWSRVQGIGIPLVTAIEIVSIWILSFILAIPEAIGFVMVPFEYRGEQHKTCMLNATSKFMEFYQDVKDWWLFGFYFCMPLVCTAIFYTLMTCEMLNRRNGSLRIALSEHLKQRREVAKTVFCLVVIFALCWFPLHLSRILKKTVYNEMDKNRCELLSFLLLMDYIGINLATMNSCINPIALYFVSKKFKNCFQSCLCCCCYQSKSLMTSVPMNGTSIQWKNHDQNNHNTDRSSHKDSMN

[2] = target: T2, Type-1 angiotensin II receptor (Homo sapiens, UniProt P30556); experiment: Displacement of 125I-labelled Sar1-Ile8-angiotensin-2 from human AT1 receptor
T2 sequence (P30556 whole entry): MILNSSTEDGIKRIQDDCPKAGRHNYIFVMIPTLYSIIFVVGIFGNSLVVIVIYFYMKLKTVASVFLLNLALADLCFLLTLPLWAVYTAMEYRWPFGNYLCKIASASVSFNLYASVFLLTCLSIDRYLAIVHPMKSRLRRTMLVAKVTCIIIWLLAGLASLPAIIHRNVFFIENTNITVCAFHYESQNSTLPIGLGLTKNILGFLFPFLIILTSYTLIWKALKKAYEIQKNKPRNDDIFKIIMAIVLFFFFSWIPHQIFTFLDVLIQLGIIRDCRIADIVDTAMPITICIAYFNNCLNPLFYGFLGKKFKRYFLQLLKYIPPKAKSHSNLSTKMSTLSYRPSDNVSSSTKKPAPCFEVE

[3] = tested on: Rattus norvegicus; experiment: Antihypertensive activity in spontaneous hypertensive rat assessed as heart rate at 20 mg/kg, po after 1 to 24 hrs; assay type: functional, organism-based
[4] = tested on: Rattus norvegicus; experiment: Antihypertensive activity in spontaneous hypertensive rat assessed as time duration of lowering mean blood pressure >20 mmHg at 20 mg/kg, po; assay type: functional
[5] = tested on: Rattus norvegicus; experiment: Antihypertensive activity in spontaneous hypertensive rat assessed as mean blood pressure at 20 mg/kg, po after 6 hrs; assay type: functional
[6] = tested on: Rattus norvegicus; experiment: Antihypertensive activity in spontaneous hypertensive rat assessed as mean blood pressure at 20 mg/kg, po after 24 hrs; assay type: functional, organism-based
[7] = tested on: Rattus norvegicus; experiment: Antihypertensive activity in spontaneous hypertensive rat assessed as mean blood pressure at 20 mg/kg, po after 4 hrs; assay type: functional

IC50 [1] [nM] | IC50 [2] [nM] | Structure (SMILES) | further results
7000 | 26.1 | CCCc1nc2c(C)cc(C(=O)NCCc3ccccc3OC)cc2n1Cc1ccc(-c2ccccc2C(=O)Nc2nnn[nH]2)cc1 | 
> 20000 | 550 | CCCc1nc2c(C)cc(C(=O)NCc3ccc(OC)cc3)cc2n1Cc1ccc(-c2ccccc2C(=O)Nc2nnn[nH]2)cc1 | 
> 20000 | 390 | CCCc1nc2c(C)cc(C(=O)NC(C)(C)C)cc2n1Cc1ccc(-c2ccccc2C(=O)Nc2nnn[nH]2)cc1 | 
> 20000 | 93 | CCCc1nc2c(C)cc(C(=O)NCCc3ccc(OC)c(OC)c3)cc2n1Cc1ccc(-c2ccccc2C(=O)Nc2nnn[nH]2)cc1 | 
> 20000 | 30.7 | CCCc1nc2c(C)cc(C(=O)NCCc3cc(OC)ccc3OC)cc2n1Cc1ccc(-c2ccccc2C(=O)Nc2nnn[nH]2)cc1 | 
7200 | 73.3 | CCCc1nc2c(C)cc(C(=O)NCc3ccccc3OC)cc2n1Cc1ccc(-c2ccccc2C(=O)Nc2nnn[nH]2)cc1 | 
126 | 3.9 | CCCc1nc2c(C)cc(C(=O)NCCc3ccccc3)cc2n1Cc1ccc(-c2ccccc2C(=O)Nc2nnn[nH]2)cc1 | Activity [3]: Active; Time [4]: 4 h; Activity [5]: 24 mmHg; Activity [6]: Active
> 20000 | 161 | CCCc1nc2c(C)cc(C(=O)NC(C)C)cc2n1Cc1ccc(-c2ccccc2C(=O)Nc2nnn[nH]2)cc1 | 
14000 | 73.7 | CCCc1nc2c(C)cc(C(=O)Nc3ccccc3)cc2n1Cc1ccc(-c2ccccc2C(=O)Nc2nnn[nH]2)cc1 | 
> 20000 | 67.5 | CCCc1nc2c(C)cc(C(=O)NCCN3CCCCC3)cc2n1Cc1ccc(-c2ccccc2C(=O)Nc2nnn[nH]2)cc1 | 
9100 | 53.5 | CCCc1nc2c(C)cc(C(=O)NCCN3CCN(C)CC3)cc2n1Cc1ccc(-c2ccccc2C(=O)Nc2nnn[nH]2)cc1 | 
7100 | 69.4 | CCCc1nc2c(C)cc(C(=O)NCCN3CCCC3)cc2n1Cc1ccc(-c2ccccc2C(=O)Nc2nnn[nH]2)cc1 | 
 |  | CCCCC1=NC2(CCCC2)C(=O)N1Cc1ccc(-c2ccccc2-c2nnn[nH]2)cc1 [IRBESARTAN] | Activity [3]: Active; Time [4]: 1 h; Activity [6]: Active; Activity [7]: 20 mmHg
886 | 347 | CCCc1nc2c(C)cc(C(=O)Nc3ccccc3OC)cc2n1Cc1ccc(-c2ccccc2C(=O)Nc2nnn[nH]2)cc1 | 
> 20000 | 363 | CCCNC(=O)c1cc(C)c2nc(CCC)n(Cc3ccc(-c4ccccc4C(=O)Nc4nnn[nH]4)cc3)c2c1 | 
> 20000 | 439 | CCCCNC(=O)c1cc(C)c2nc(CCC)n(Cc3ccc(-c4ccccc4C(=O)Nc4nnn[nH]4)cc3)c2c1 | 
625 | 53.9 | CCCc1nc2c(C)cc(C(=O)NCc3cccc(OC)c3)cc2n1Cc1ccc(-c2ccccc2C(=O)Nc2nnn[nH]2)cc1 | 
11000 | 90 | CCCc1nc2c(C)cc(C(=O)NCCc3ccccc3F)cc2n1Cc1ccc(-c2ccccc2C(=O)Nc2nnn[nH]2)cc1 | 
13000 | 87.8 | CCCc1nc2c(C)cc(C(=O)NCCc3ccc(OC)cc3)cc2n1Cc1ccc(-c2ccccc2C(=O)Nc2nnn[nH]2)cc1 | 
10 | 82 | CCCc1nc2c(C)cc(C(=O)NCc3ccccc3)cc2n1Cc1ccc(-c2ccccc2C(=O)Nc2nnn[nH]2)cc1 | 
165 | 44 | CCCc1nc2c(C)cc(C(=O)NCCN3CCOCC3)cc2n1Cc1ccc(-c2ccccc2C(=O)Nc2nnn[nH]2)cc1 | 
> 20000 | 140 | CCCc1nc2c(C)cc(C(=O)NCCc3ccc(F)cc3)cc2n1Cc1ccc(-c2ccccc2C(=O)Nc2nnn[nH]2)cc1 | 
> 20000 | 36.9 | CCCc1nc2c(C)cc(C(=O)NCCc3cccc(OC)c3)cc2n1Cc1ccc(-c2ccccc2C(=O)Nc2nnn[nH]2)cc1 | 
10000 | 32.9 | CCCc1nc2c(C)cc(C(=O)NCc3ccc(OC)c(OC)c3)cc2n1Cc1ccc(-c2ccccc2C(=O)Nc2nnn[nH]2)cc1 | 
